Several values for one entry are separate records, joined by “and”; a condition that tells them apart may be missing. Equal entries are not always repeated.
How the values were obtained:
[1] = test system: HeLa cells; conditions: 100 μM
[2] = pH 7.4
[3] = test system: 45 receptors and channels; conditions: 10 μM; radioligand binding and functional assays
[4] = MLM incubation
[5] = Aqueous solubility
[6] = in vitro; conditions: PAMPA, pH 7.4
[7] = mice, 20 mg/kg, IP, whole period of the experiment
[8] = test system: Plk1 localization to centrosomes and kinetochores; assay: Plk1 localization and spindle morphology by immunostaining in HeLa cells; type: cell-based; conditions: 100 μM, 12 h

Structure (SMILES) | ability to induce mitotic arrest and an antiproliferation effect [1] | PAMPA [2] | further results
CCCn1c(=O)c2ccccc2n2c(S)nnc12 [Compound 21, 4-Propyl-1-thioxo-2,4-dihydro-[1,2,4]triazolo[4,3-a]quinazolin-5(1H)-one] | lacked a detectable level of cellular response | 37.0 ×10⁻⁶ cm/s and 37 ×10⁻⁶ cm/s | potential off-target interactions [3]: not detected
CCCCn1c(=O)c2ccccc2n2c(S)nnc12 [Compound 23, 4-Butyl-1-thioxo-2,4-dihydro-[1,2,4]triazolo[4,3-a]quinazolin-5(1H)-one] |  | 77.5 ×10⁻⁶ cm/s | major metabolite (LC–MS/MS) [4]: glucuronidation is the major metabolite
CCCn1c(=O)c2ccccc2n2c(=S)n(CN(C)C3CC3)nc12 [Compound 35, 2-((Cyclopropyl(methyl)amino)methyl)-4-propyl-1-thioxo-2,4-di-hydro-[1,2,4]triazolo[4,3-a]quinazolin-5(1H)-one] |  |  | Solub. (μg/ml) [5]: Insol.
CCCn1c(=O)c2cc(F)ccc2n2c(=S)[nH]nc12 [Compound 64, 7-Fluoro-4-propyl-1-thioxo-2,4-dihydro-[1,2,4]triazolo[4,3-a]-quinazolin-5(1H)-one] | lacked a detectable level of cellular response | 195 ×10⁻⁶ cm/s | 
CN(C)CCn1c(=O)c2cc(F)ccc2n2c(=S)[nH]nc12 [Compound 70, 4-(2-(Dimethylamino)ethyl)-7-fluoro-1-thioxo-2,4-dihydro-[1,2,4]triazolo[4,3-a]quinazolin-5(1H)-one] |  |  | Papp [6]: 177 ×10⁻⁶ cm/s
O=C(Cc1ccc(Br)cc1)NCCCn1c(=O)c2cc(F)ccc2n2c(=S)[nH]nc12 [Compound 125, 2-(4-Bromophenyl)-N-(3-(7-fluoro-5-oxo-1-thioxo-1,2-dihydro-[1,2,4]triazolo[4,3-a]quinazolin-4(5H)-yl)propyl)acetamide] |  | 767 ×10⁻⁶ cm/s | 
Cc1ccc(CC(=O)NCCCn2c(=O)c3cc(F)ccc3n3c(=S)[nH]nc23)cc1 [Compound 126, N-(3-(7-Fluoro-5-oxo-1-thioxo-1,2-dihydro-[1,2,4]triazolo[4,3-a]-quinazolin-4(5H)-yl)propyl)-2-(p-tolyl)acetamide] |  | 621 ×10⁻⁶ cm/s | 
COc1ccccc1CC(=O)NCCCn1c(=O)c2cc(F)ccc2n2c(=S)[nH]nc12 [Compound 128, N-(3-(7-Fluoro-5-oxo-1-thioxo-1,2-dihydro-[1,2,4]triazolo[4,3-a]-quinazolin-4(5H)-yl)propyl)-2-(2-methoxyphenyl)acetamide] |  | 379 ×10⁻⁶ cm/s | 
COc1cccc(CC(=O)NCCCn2c(=O)c3cc(F)ccc3n3c(=S)[nH]nc23)c1 [Compound 129, N-(3-(7-Fluoro-5-oxo-1-thioxo-1,2-dihydro-[1,2,4]triazolo[4,3-a]-quinazolin-4(5H)-yl)propyl)-2-(3-methoxyphenyl)acetamide] |  |  | Papp [6]: 311 ×10⁻⁶ cm/s
COc1ccc(CC(=O)NCCCn2c(=O)c3cc(F)ccc3n3c(=S)[nH]nc23)cc1 [Compound 130, N-(3-(7-Fluoro-5-oxo-1-thioxo-1,2-dihydro-[1,2,4]triazolo[4,3-a]-quinazolin-4(5H)-yl)propyl)-2-(4-methoxyphenyl)acetamide] |  | 233 ×10⁻⁶ cm/s | 
O=C(Cc1ccccc1C(F)(F)F)NCCCn1c(=O)c2cc(F)ccc2n2c(=S)[nH]nc12 [Compound 131, N-(3-(7-Fluoro-5-oxo-1-thioxo-1,2-dihydro-[1,2,4]triazolo[4,3-a]-quinazolin-4(5H)-yl)propyl)-2-(2-(trifluoromethyl)phenyl)-acetamide] |  | 825 ×10⁻⁶ cm/s | 
N#Cc1ccccc1CC(=O)NCCCn1c(=O)c2cc(F)ccc2n2c(=S)[nH]nc12 [Compound 133, 2-(2-Cyanophenyl)-N-(3-(7-fluoro-5-oxo-1-thioxo-1,2-dihydro-[1,2,4]triazolo[4,3-a]quinazolin-4(5H)-yl)propyl)acetamide] |  | 156 ×10⁻⁶ cm/s | 
CC(C)(C)OC(=O)Nc1ccc(CC(=O)NCCCn2c(=O)c3cc(F)ccc3n3c(=S)[nH]nc23)cc1 [Compound 135, tert-Butyl (4-(2-((3-(7-Fluoro-5-oxo-1-thioxo-1,2-dihydro-[1,2,4]-triazolo[4,3-a]quinazolin-4(5H)-yl)propyl)amino)-2-oxoethyl)-phenyl)carbamate] |  | 910 ×10⁻⁶ cm/s | 
O=C(Cc1ccccn1)NCCCn1c(=O)c2cc(F)ccc2n2c(=S)[nH]nc12 [Compound 136, N-(3-(7-Fluoro-5-oxo-1-thioxo-1,2-dihydro-[1,2,4]triazolo[4,3-a]-quinazolin-4(5H)-yl)propyl)-2-(pyridine-2-yl)acetamide] |  | 68.0 ×10⁻⁶ cm/s | 
O=C(Cc1cccnc1)NCCCn1c(=O)c2cc(F)ccc2n2c(=S)[nH]nc12 [Compound 137, N-(3-(7-Fluoro-5-oxo-1-thioxo-1,2-dihydro-[1,2,4]triazolo[4,3-a]-quinazolin-4(5H)-yl)propyl)-2-(pyridine-3-yl)acetamide] |  | 21.0 ×10⁻⁶ cm/s | 
O=C(Cc1ccncc1)NCCCn1c(=O)c2cc(F)ccc2n2c(=S)[nH]nc12 [Compound 138, N-(3-(7-Fluoro-5-oxo-1-thioxo-1,2-dihydro-[1,2,4]triazolo[4,3-a]-quinazolin-4(5H)-yl)propyl)-2-(pyridine-4-yl)acetamide] |  | <1 ×10⁻⁶ cm/s | 
CCCn1c(=O)c2cccc(F)c2n2c(=S)[nH]nc12 [Compound 139, 9-Fluoro-4-propyl-1-thioxo-2,4-dihydro-[1,2,4]triazolo[4,3-a]-quinazolin-5(1H)-one] | lacked a detectable level of cellular response |  | 
CCCn1c(=O)c2ccccc2n2c(SC)nnc12 [Compound 143, 1-(Methylthio)-4-propyl-[1,2,4]triazolo[4,3-a]quinazolin-5(4H)-one] | effectively induced rounded cells with apoptotic or aberrant chromosome morphologies |  | signs of toxicity [7]: no signs of toxicity; spindle bipolarity [8]: significantly compromised
CCCn1c(=O)c2cc(F)ccc2n2c(SC)nnc12 [Compound 144, 7-Fluoro-1-(methylthio)-4-propyl-[1,2,4]triazolo[4,3-a]-quinazolin-5(4H)-one] | induced mitotic arrest but at a somewhat reduced level |  | 
CCCn1c(=O)c2cccc(F)c2n2c(SC)nnc12 [Compound 145, 9-Fluoro-1-(methylthio)-4-propyl-[1,2,4]triazolo[4,3-a]-quinazolin-5(4H)-one] | effectively induced rounded cells with apoptotic or aberrant chromosome morphologies |  | 
